Laboratory results published in ChEMBL document CHEMBL1649312, “Absence of association between piperaquine in vitro responses and polymorphisms in the pfcrt, pfmdr1, pfmrp, and pfnhe genes in Plasmodium falciparum” (Antimicrob Agents Chemother, 2010).

Columns and labels:
Type in all cases: functional, organism-based
Plasmodium falciparum [1] = test: Antimalarial activity against Plasmodium falciparum IMT K2 assessed as inhibition of [3H] incorporation after 48 hrs by scintillation counter
Plasmodium falciparum [2] = test: Antimalarial activity against Plasmodium falciparum 3D7 assessed as inhibition of [3H] incorporation after 48 hrs by scintillation counter
Plasmodium falciparum [3] = test: Antimalarial activity against Plasmodium falciparum IMT 10354 assessed as inhibition of [3H] incorporation after 48 hrs by scintillation counter
Plasmodium falciparum [4] = test: Antimalarial activity against Plasmodium falciparum IMT 16332 assessed as inhibition of [3H] incorporation after 48 hrs by scintillation counter
Plasmodium falciparum [5] = test: Antimalarial activity against Plasmodium falciparum IMT 31 assessed as inhibition of [3H] incorporation after 48 hrs by scintillation counter
Plasmodium falciparum [6] = test: Antimalarial activity against Plasmodium falciparum D6 assessed as inhibition of [3H] incorporation after 48 hrs by scintillation counter
Plasmodium falciparum [7] = test: Antimalarial activity against Plasmodium falciparum IMT 8425 assessed as inhibition of [3H] incorporation after 48 hrs by scintillation counter
Plasmodium falciparum [8] = test: Antimalarial activity against Plasmodium falciparum IMT K4 assessed as inhibition of [3H] incorporation after 48 hrs by scintillation counter
Plasmodium falciparum [9] = test: Antimalarial activity against Plasmodium falciparum 106/1 assessed as inhibition of [3H] incorporation after 48 hrs by scintillation counter
Plasmodium falciparum [10] = test: Antimalarial activity against Plasmodium falciparum IMT Bres assessed as inhibition of [3H] incorporation after 48 hrs by scintillation counter
Plasmodium falciparum [11] = test: Antimalarial activity against Plasmodium falciparum IMT K14 assessed as inhibition of [3H] incorporation after 48 hrs by scintillation counter
Plasmodium falciparum [12] = test: Antimalarial activity against Plasmodium falciparum IMT Guy assessed as inhibition of [3H] incorporation after 48 hrs by scintillation counter
Plasmodium falciparum [13] = test: Antimalarial activity against Plasmodium falciparum IMT L1 assessed as inhibition of [3H] incorporation after 48 hrs by scintillation counter
Plasmodium falciparum [14] = test: Antimalarial activity against Plasmodium falciparum W2 assessed as inhibition of [3H] incorporation after 48 hrs by scintillation counter
Plasmodium falciparum [15] = test: Antimalarial activity against Plasmodium falciparum PA assessed as inhibition of [3H] incorporation after 48 hrs by scintillation counter
Plasmodium falciparum [16] = test: Antimalarial activity against Plasmodium falciparum IMT A4 assessed as inhibition of [3H] incorporation after 48 hrs by scintillation counter
Plasmodium falciparum [17] = test: Antimalarial activity against Plasmodium falciparum FCM29 assessed as inhibition of [3H] incorporation after 48 hrs by scintillation counter
Plasmodium falciparum [18] = test: Antimalarial activity against Plasmodium falciparum IMT 9881 assessed as inhibition of [3H] incorporation after 48 hrs by scintillation counter
Plasmodium falciparum [19] = test: Antimalarial activity against Plasmodium falciparum IMT 10500 assessed as inhibition of [3H] incorporation after 48 hrs by scintillation counter
Plasmodium falciparum [20] = test: Antimalarial activity against Plasmodium falciparum HB3 assessed as inhibition of [3H] incorporation after 48 hrs by scintillation counter
Plasmodium falciparum [21] = test: Antimalarial activity against Plasmodium falciparum IMT Vol assessed as inhibition of [3H] incorporation after 48 hrs by scintillation counter

`C=C[C@H]1CN2CC[C@H]1C[C@H]2[C@H](O)c1ccnc2ccc(OC)cc12` [QUININE] gave an IC50 (Plasmodium falciparum [1]) of 607 nM, an IC50 (Plasmodium falciparum [2]) of 134 nM and an IC50 (Plasmodium falciparum [3]) of 118 nM. For the same compound, the IC50 (Plasmodium falciparum [4]) was 240 nM, the IC50 (Plasmodium falciparum [5]) was 272 nM and the IC50 (Plasmodium falciparum [6]) was 48 nM. The IC50 (Plasmodium falciparum [7]) was 138 nM, the IC50 (Plasmodium falciparum [8]) was 953 nM and the IC50 (Plasmodium falciparum [9]) was 135 nM. For the same compound, the IC50 (Plasmodium falciparum [10]) was 604 nM, the IC50 (Plasmodium falciparum [11]) was 969 nM and the IC50 (Plasmodium falciparum [12]) was 322 nM.

For `CCNCc1cc(Nc2ccnc3cc(Cl)ccc23)ccc1O` [DESETHYL AMODIAQUINE], the IC50 (Plasmodium falciparum [2]) was 26 nM, the IC50 (Plasmodium falciparum [3]) was 20 nM and the IC50 (Plasmodium falciparum [4]) was 52 nM. It also gave an IC50 (Plasmodium falciparum [13]) of 85 nM, an IC50 (Plasmodium falciparum [14]) of 135 nM and an IC50 (Plasmodium falciparum [5]) of 29 nM. The IC50 (Plasmodium falciparum [6]) was 23 nM, the IC50 (Plasmodium falciparum [7]) was 27 nM and the IC50 (Plasmodium falciparum [8]) was 113 nM. It also gave an IC50 (Plasmodium falciparum [15]) of 119 nM, an IC50 (Plasmodium falciparum [9]) of 32 nM and an IC50 (Plasmodium falciparum [10]) of 104 nM. It also gave an IC50 (Plasmodium falciparum [11]) of 166 nM, an IC50 (Plasmodium falciparum [12]) of 45 nM and an IC50 (Plasmodium falciparum [16]) of 123 nM. The IC50 (Plasmodium falciparum [17]) was 314 nM, the IC50 (Plasmodium falciparum [18]) was 34 nM and the IC50 (Plasmodium falciparum [19]) was 40 nM. The IC50 (Plasmodium falciparum [20]) was 32 nM and the IC50 (Plasmodium falciparum [21]) was 82 nM.
